Reference: patent US5464859A, “Benzospiroalkene derivatives” (Adir et Compagnie, priority 1993, dated 1995)
Counter-ions that a name gives are not always drawn.

Legend:
femoral arteries = assay: In vitro contraction of dog femoral arteries (agonist concentration/effect curve); conditions: Canis lupus familiaris, ARTERY; for EC50: femoral artery rings, dog, 37° C.; for Emax: maximum effect relative to maximum effect caused by 100 mM KCl, read-out: Max (% KCl)
Description: (§1) In vitro study on the femoral arteries and saphenous veins of dogs
(§2) The technique used is based on that described by Fowler et at. (J. Pharmacol. Exp. Ther., 229, 712-718, 1984). Male or female mongrel dogs weighing approximately 15-25 kg were used as organ sources. The animals are anesthetized with pentrobarbital (30 mg/kg, intravenously). Incisions are made in the legs and the vessels are withdrawn. They are placed in Krebs-Ringer liquid (NaCl 118 mM, NaHCO3 25 mM, Glucose 10 mM, KCl 4.7 mM, CaCl2 1.25 mM, MgSO4 1.19 mM, KH2 PO4 1.14 mM) at room temperature and while bubbling with carbogen (95% O2, 5% CO2). These vessels are then carefully freed from their fat, then cut into rings with a width of 2 mm and mounted under a base tension of 4 g (femoral arteries) or 1 g (saphenous veins) in vessels thermostatically controlled at 37° C. containing Krebs-Ringer liquid through which carbogen is constantly bubbling. A lower hook constitutes the set point whereas the upper hook is connected to an isometric force sensor. The tension variations are digitized, stored on disk and processed by a computer system. After mounting, the organs, are left at rest for 90 minutes, rinsings being carried out every 30 min. After readjusting the base tension, a contraction is caused by a single dose of KCl (100 mM). After stabilisation, washing and returning to the base line, a contraction is provoked by a single dose of phenylephrine (submaximal concentration) in order to regularize the following contractions. After washing and returning to the base line, a concentration/effect curve is produced by addition of cumulative doses of agonist (the spacing between the doses is a half-log). This experiment makes it possible to calculate the 50% effective concentration (EC5.sbsb.0) in the following way: the tension values are first converted to percentages with respect to the maximum effect caused by 100 mM of KCl. This EC5.sbsb.0 is determined by non-linear regression by the Simplex method (M. S. Caceci, Byte, 340-362, 1984), calculated according to the model of the law of mass action of L. Michaelis and M. L. Menten (Biochem. Zeitschrifft, 49, 333-369, 1913). E=(Emax*C^n)(EC^n +C^n) where E=effect, Emax=maximum effect, C=concentration, EC=EC5.sbsb.0 and n=Hill number.

saphenous veins = assay: In vitro contraction of dog saphenous veins (agonist concentration/effect curve); conditions: Canis lupus familiaris, VEIN; for Emax: maximum effect relative to maximum effect caused by 100 mM KCl, read-out: Max (% KCl); for EC50: saphenous vein rings, dog, 37° C.
Description: as §1, §2

1 or 2 -adrenergic = assay: In vivo study on amyelous rats (arterial pressure increase, with or without prazosin or yohimbine); parameters: species or system Male Sprague-Dawley rats; conditions: for Ratio C20 treated/C20 control: pretreated with yohimbine (1 mg/kg); for ED (20 mmHg): Rattus norvegicus, iv, Control (no antagonist), increasing cumulative doses every 20 seconds, tertatolol pretreatment, read-out: C20 (concentration which increases the pressure by 20 mmHg)
Description: In vivo study on AMYELOUS RATS
Male Sprague-Dawley rats (300-400 g) are anesthatized with ether. A cannula is inserted in the trachea, the spinal cord is destroyed using a steel rod and the animal is immediately placed under artificial respiration. The vagus nerves are sectioned. The carotid arteries are ligatured and a catheter is placed in one and is used to record the arterial pressure. Three other catheters are placed in the jugular veins and the vein of the penis and are used for injections. The temperature of the animals is maintained at 36° C. The animal is pretreated with an injection of tertatolol ([…]). The animal is also pretreated 10 minutes afterwards with prazosin ([…]) or yohimbine (1 mg/kg) when it is wished to determine the 1 or 2 -adrenergic properties of the product. Ten minutes later, increasing cumulative doses of product are injected every 20 seconds. The medal pressure variations are detected using a P23XL Statham pressure cell and are recorded. The pressure values are expressed in mmHg. This experiment makes it possible to calculate the concentration which increases the pressure by 20 mmHg (C2.sbsb.0) by non-linear regression according to the model of the Michaelis and Menten mass action law as described above. The maximum effect obtained is then converted to a percentage with respect to the maximum effect caused by phenylephrine. The 1 or 2 -adrenergic components of the product are estimated using the ratio of the C2.sbsb.0 values obtained in the presence of prazosin or of yohimbine to the values obtained in the absence of these antagonists. In amyelous rats, the products of the invention induce hypertensions which are inhibited more by prazosin than by yohimbine.

Compound	EC50 (femoral arteries) [nM]	EC50 (saphenous veins) [nM]	Emax (femoral arteries) [%]	Emax (saphenous veins) [%]	Ratio C20 treated/C20 control (1 or 2 -adrenergic)	ED (20 mmHg) (1 or 2 -adrenergic) [µg/kg]
COc1ccc(OC)c2c1CCC1(CNC=N1)C2 (single isomer, unassigned) [Example 7, Spiro[(1,3-diazacyclopent-1-ene)-5,2'-(5',8'-dimethoxy-1',2',3',4'-tetrahydro-naphthalene)]fumarate, isomer α]	30	120	95	109		
COc1cccc2c1CCC1(CNC=N1)C2 (stereo not drawn) [Example 5, Spiro[(1,3-diazacyclopent-1-ene)-5,2'-(5'-methoxy-1',2',3',4'-tetrahydronaphthalene)]]	1500	6400	93	100		
CCOc1ccc(OC)c2c1CCC1(CNC=N1)C2 (stereo not drawn) [Example 2, Spiro[(1,3-diazacyclopent-1-ene)-5,2'-(5'-ethoxy-8'-methoxy-1',2',3',4'-tetrahydronaphthalene)]fumarate]					5	0.06
CCOc1ccc(OCC)c2c1CCC1(CNC=N1)C2 (stereo not drawn) [Example 3, Spiro[(1,3-diazacyclopent-1-ene)-5,2'-(5',8'-diethoxy-1',2',3',4'-tetrahydronaphthalene) fumarate]					8	0.6

Continued, in another order:

EC50 (femoral arteries) [nM]	EC50 (saphenous veins) [nM]	Compound	Emax (femoral arteries) [%]	Emax (saphenous veins) [%]	Ratio C20 treated/C20 control (1 or 2 -adrenergic)	ED (20 mmHg) (1 or 2 -adrenergic) [µg/kg]
80	800	COc1ccc(SC)c2c1CC1(CC2)CNC=N1 (stereo not drawn) [Example 6, Spiro[(1,3-diazacyclopent-1-ene)-5,2'-(5'-methylthio-8'-methoxy-1',2',3',4'-tetrahydronaphthalene)]fumarate]	85	98		
160	200	COc1ccc(OC)c2c1CCC1(CNC=N1)C2 (stereo not drawn) [Example 1, Spiro[(1,3-diazacyclopent-1-ene)-5,2'-(5',8'-dimethoxy-1',2',3',4'-tetrahydronaphthalene)]fumarate]	72	100	11	
